# From patent US10874626B2, “Formulation for use in a method of treatment of pain” (NEVAKAR Inc., priority 2016, dated 2020)
# How the values were obtained:
# [1] = Stability of GBP in presence of different stabilizers and solvents; format: physicochemical; settings: GBP 9 mg/mL in acetate buffer, PVP 10 mg/mL
# Procedure: GBP containing formulations were prepared by dissolving GBP to a concentration of 9 mg/mL in acetate buffer. A first set of samples were tested for assay and impurities after the initial preparation of formulation, Another set of samples were steam sterilized at 121° C. for 15 min and were tested for assay and impurity levels.
# [2] = test system: mouse whole blood (male), red blood cells; test: In vitro hemolysis test, mouse blood; settings: mouse whole unclotted blood, concentrations tested, 15 min at 37° C.
# Procedure: (§1) APAP and GBP alone or in combination were evaluated in the in vitro hemolysis test using four biologic matrices (mouse, rat, dog and human whole unclotted blood) to determine the hemolytic potential for each on red blood cells.
# [3] = test system: rat whole blood (male), red blood cells; test: In vitro hemolysis test, rat blood; settings: rat whole unclotted blood, concentrations tested, 15 min at 37° C.
# Procedure: as §1
# [4] = test system: beagle dog whole blood (male), red blood cells; test: In vitro hemolysis test, dog blood; settings: dog whole unclotted blood, concentrations tested, 15 min at 37° C.
# Procedure: as §1
# [5] = test system: human (pooled) whole blood, red blood cells; test: In vitro hemolysis test, human blood; settings: human whole unclotted blood, concentrations tested, 15 min at 37° C.
# Procedure: as §1
# Male ICR mice = test: Mouse RotoRod/Acelerorod test; settings: 15 minute IV infusion, 10 mg Acetaminophen/mL, 8 mg Gabapentin/mL, 1, 2, 4, 6 h
# Procedure: Mouse tail flick test was conducted to evaluate test somatic pain and mouse rotorod/acelorod test evaluated behavioral changes, specifically somnolence or dizziness
# In each case a positive control was administered as described below.
# Male ICR mice were trained on a RotoRod/Acelerod at a continuous accelerating speed from 4 to 30 rpm/min during a time period of 4 minutes for at least 3 times on day 0. Vehicle or test article at a single dose is administered by intravenous infusion over 15 minutes starting 30 minutes before the test period starts and chlorpromazine (30 mg/kg, PO) was administered by oral gavage 60 minutes before the start of the test period. At 1, 2, 4, and 6 hours after the start of the test the mice are placed on the accelerating rotorod (increasing from 4 to 30 rpm/min during a 4 min period) and the time (seconds) the mouse remained on the rotorod was recorded. One-way ANOVA followed by Dunnett's test is applied for comparison between vehicle control and test article groups. P<0.05 is considered significant.
# A baseline was measured before administration of the test agents and at 1, 2, 4 and 6 h post the start of the study. The effect of the compounds was evaluated in the standard RotoRod/Acelerorod test.
# [6] = oral; cited from earlier work
# Male rats = test: Toxicologic profile in rats (clinical pathology, necropsy, histopathology); settings: 24 h after 15 minute IV infusion, infusion site, lung, liver, kidney
# [7] = Koshy et al; cited from earlier work
Compound,stability of GBP with stabilizer [1],Interpretation of hemolysis [2],Interpretation of hemolysis [3],Interpretation of hemolysis [4],Interpretation of hemolysis [5],motor control (time on rotorod) compared to the vehicle control (Male ICR mice),Plasma concentrations versus dose [6],histopathology compared to the vehicle control (Male rats),pH range in which hydrolysis of APAP is minimum [7]
1-(aminomethyl) cyclohexane acetic acid [Gabapentin],more stable,not considered to be hemolytic,not considered to be hemolytic,not considered to be hemolytic,not considered to be hemolytic,no statistically significant decrease in motor control,proportional with dose up to 1800 mg daily and then plateau at approximately 3600 mg daily,no changes in the histopathology in any tissue sampled,
"CC(=O)Nc1ccc(O)cc1 [Acetaminophen, acetaminophen]",,not considered to be hemolytic,not considered to be hemolytic,not considered to be hemolytic,not considered to be hemolytic,no statistically significant decrease in motor control,,,5-7
